Measured values taken from patent US5827845A, “Cephalosporin derivative” (priority 1993, dated 1998).

Tests used:
[1] = system: Staphylococcus aureus M126*; assay: minimum growth inhibitory concentration, serial dilution method; assay type: cell-based; details: S. aureus M126, methicillin-resistant (MRSA), sodium salts, 35° C., 18-20 hours; for MIC: Staphylococcus aureus, read-out: Minimum growth inhibition concentrations (MIC)
Method: (§1) The determination of MIC. was conducted by inoculating the test microorganism to an incubation medium N for sensitive disc (a product of Nissui Seiyaku Co., Japan), effecting the incubation at 35° C. for 18-20 hours and then estimating the growth of the bacteria. The compounds tested were the sodium salts of Compound A to Compound F indicated below:
(§2) For the comparison purpose, the values similarly determined of MIC. ([…]) of ME1206 compound (sodium salt), Cefdinir (sodium salt) (abbreviated as CFDN) and Cefixime (sodium salt) (abbreviated as CFIX) are also shown in Table 1.

[2] = system: Serratia marcescens No. 1; assay: as above; assay type: cell-based; details: sodium salts, 35° C., 18-20 hours; for MIC: read-out: Minimum growth inhibition concentrations (MIC)
Method: as §1, §2

Morganella morganii 1510 = assay: as above; assay type: cell-based; details: sodium salts, 35° C., 18-20 hours; for MIC: Morganella morganii, 1510, Morganella morganii 1510, read-out: Minimum growth inhibition concentrations (MIC)
Method: as §1, §2

[3] = system: Enterobacter cloacae G-0008; assay: as above; assay type: cell-based; details: 35° C., 18-20 hours; for MIC: G0008, sodium salts, read-out: Minimum growth inhibition concentrations (MIC)
Method: as §1, §2

[4] = system: Enterococcus hirae ATCC 8043; assay: as above; assay type: cell-based; details: sodium salts, 35° C., 18-20 hours; for MIC: Enterococcus hirae, ATCC8043, Enterococcus hirae ATCC 8043, read-out: Minimum growth inhibition concentrations (MIC)
Method: as §1, §2

[5] = system: Staphylococcus aureus 209P JC-1; assay: as above; assay type: cell-based; details: S. aureus 209P JC-1, sodium salts, 35° C., 18-20 hours; for MIC: Staphylococcus aureus, 209P, read-out: Minimum growth inhibition concentrations (MIC)
Method: as §1, §2

[6] = system: Staphylococcus aureus M133*; assay: as above; assay type: cell-based; details: S. aureus M133, methicillin-resistant (MRSA), sodium salts, 35° C., 18-20 hours; for MIC: Staphylococcus aureus, MRSA, read-out: Minimum growth inhibition concentrations (MIC)
Method: as §1, §2

Escherichia coli GN 206 = assay: as above; assay type: cell-based; details: sodium salts, 35° C., 18-20 hours; for MIC: Escherichia coli, GN206, Escherichia coli GN 206, read-out: Minimum growth inhibition concentrations (MIC)
Method: as §1, §2

[7] = system: Enterococcus faecalis W-73; assay: as above; assay type: cell-based; details: sodium salts, 35° C., 18-20 hours; for Minimum growth inhibition concentrations (MIC): Enterococcus faecalis W-73; for MIC: Enterococcus faecalis, W73, Enterococcus faecalis W-73, read-out: Minimum growth inhibition concentrations (MIC)
Method: as §1, §2

[8] = blood concentration pharmacokinetics after subcutaneous injection in mice; assay type: in vivo, mice (Jcl;ICR strain); details: for concentration in blood (in words): injected subcutaneously, mice; for half-life / AUC: mouse, serum, sc, 0.5 mg; for AUC: read-out: AUC (area under the plasma concentration-time curve)
Method: The test procedure used was as follows: Thus, to mice of Jcl;ICR strain (4 week-aged, male) each was administered subcutaneously an aqueous solution containing 2.5 mg/ml of a test compound dissolved in distilled water sterilized for injections, in such a way that 0.2 ml of said aqueous solution (corresponding to a dosage of the test compound of 0.5 mg per mouse) was injected to one mouse. At the time-points of 5, 15, 30, 60 and 120 minutes after the administration, the blood samples were collected from the armpit of mouse. The blood samples so collected were each allowed to stand for about 2 hours at room temperature and then centrifuged for 10 minutes in a centrifugal separator to recover the serum. The serum obtained was mixed well with an equal volume of methanol added thereto, and the resulting mixture was centrifuged at 12,000 rpm. for 3 minutes. The supernatant obtained was passed through a filter (Sumplep LCR-13-LH) to obtain the serum sample to be assayed by a high performance liquid chromatography (HPLC). This serum sample was assayed by HPLC to measure quantitatively the concentration of the test compound in the serum.
For each test compound, its half-life value in blood and its AUC (Area under the plasma concentration-time curve),which are the pharmacokinetic parameters, were evaluated according to the method of Gauss-Newton.
For the comparison purpose, the ME1206 compound was also tested in the same manner as above.

[9] = sodium salt, subcutaneous, 0.5 mg per mouse, HPLC of serum

SMILES | concentration in blood (in words) [8] | half-life [8, 9] | AUC [8, 9] | MIC [1] | MIC [2] | MIC (Morganella morganii 1510) | MIC [3] | MIC [4] | MIC [5] | MIC [6] | MIC (Escherichia coli GN 206) | MIC [7] | other results
Nc1nc(C(=NO)C(=O)NC2C(=O)N3C(C(=O)O)=C(C=Cc4cncs4)CSC23)cs1 (stereo not drawn) [Compound E, 7-[2-Hydroxyimino-2-(2-aminothiazol-4-yl)acet-amido]-3-[2-(thiazol-5-yl)vinyl]-3-cephem-4-carboxylic acid (syn-isomer, trans-isomer)] | capable of maintaining a high concentration in blood | 1.1 h | 253 µg·h/mL | – | – | – | – | – | – | – | – | – | Minimum growth inhibition concentrations (MIC) [1]: 25 µg/mL; Minimum growth inhibition concentrations (MIC) [2]: 0.78 µg/mL; Minimum growth inhibition concentrations (MIC) (Morganella morganii 1510; Morganella morganii 1510): 6.25 µg/mL; Minimum growth inhibition concentrations (MIC) ([3]; sodium salts): 0.78 µg/mL; Minimum growth inhibition concentrations (MIC) ([4]; Enterococcus hirae ATCC 8043): 25 µg/mL; Minimum growth inhibition concentrations (MIC) [5]: 0.20 µg/mL; Minimum growth inhibition concentrations (MIC) [6]: 6.25 µg/mL; Minimum growth inhibition concentrations (MIC) (Escherichia coli GN 206; Escherichia coli GN 206): 0.78 µg/mL; Minimum growth inhibition concentrations (MIC) [7]: 3.13 µg/mL
Cc1ncsc1C=CC1=C(C(=O)O)N2C(=O)C(NC(=O)C(=NO)c3csc(N)n3)C2SC1 (stereo not drawn) [Compound C, 7-[2-Hydroxyimino-2-(2-aminothiazol-4-yl)acet-amido]-3-[2-(4-methylthiazol-5-yl)vinyl]-3-cephem-4-carboxylic acid (syn-isomer, cis-isomer)] | capable of maintaining a high concentration in blood | 1.4 h | 249 µg·h/mL | 25 µg/mL | 1.56 µg/mL | 1.56 µg/mL | 0.78 µg/mL | 6.25 µg/mL | 0.2 µg/mL | 6.25 µg/mL | 3.13 µg/mL | 12.5 µg/mL | AUC (area under the plasma concentration-time curve) [8, 9]: 315.5 µg·h/mL; Half-life value in blood [8, 9]: 1.7 h
CON=C(C(=O)NC1C(=O)N2C(C(=O)O)=C(C=Cc3scnc3C)CSC12)c1csc(N)n1 (stereo not drawn) [ME1206, 7-[2-methoxyimino-2-(2-aminothiazol-4-yl)acetamido]-3-[2-(4-methylthiazol-5-yl)vinyl]-3-cephem-4-carboxylic acid (syn-isomer, cis-isomer), reference compound] | – | 1.1 h | 184 µg·h/mL | 100 µg/mL | 0.39 µg/mL | 25 µg/mL | 1.56 µg/mL | 50 µg/mL | 0.39 µg/mL | 25 µg/mL | 0.78 µg/mL | 100 µg/mL | –
C=CC1=C(C(=O)O)N2C(=O)[C@@H](NC(=O)/C(=N\O)c3csc(N)n3)[C@H]2SC1 [CFDN, Cefdinir, reference compound] | – | – | – | > 100 µg/mL | 25 µg/mL | 25 µg/mL | 6.25 µg/mL | 50 µg/mL | 0.2 µg/mL | 6.25 µg/mL | 25 µg/mL | 25 µg/mL | –
C=CC1=C(C(=O)O)N2C(=O)[C@@H](NC(=O)/C(=N\OCC(=O)O)c3csc(N)n3)[C@H]2SC1 [CFIX, Cefixime, reference compound] | – | – | – | > 100 µg/mL | 0.78 µg/mL | 50 µg/mL | 0.78 µg/mL | > 100 µg/mL | 12.5 µg/mL | 100 µg/mL | 50 µg/mL | > 100 µg/mL | –
Nc1nc(C(=NO)C(=O)NC2C(=O)N3C(C(=O)O)=C(C=Cc4scnc4C(F)(F)F)CSC23)cs1 (stereo not drawn) [Compound B, 7-[2-Hydroxyimino-2-(2-aminothiazol-4-yl)acet-amido]-3-[2-(4-trifluoromethylthiazol-5-yl)vinyl]-3-cephem-4-carboxylic acid (syn-isomer, cis-isomer)] | capable of maintaining a high concentration in blood | 0.7 h | 149 µg·h/mL | 25 µg/mL | 1.56 µg/mL | 1.56 µg/mL | 1.56 µg/mL | 6.25 µg/mL | 0.39 µg/mL | 6.25 µg/mL | 1.56 µg/mL | 12.5 µg/mL | –
Nc1nc(C(=NO)C(=O)NC2C(=O)N3C(C(=O)O)=C(C=Cc4scnc4Cl)CSC23)cs1 (stereo not drawn) [Compound A, 7-[2-Hydroxyimino-2-(2-aminothiazol-4-yl)acet-amido]-3-[2-(4-chlorothiazol-5-yl)vinyl]-3-cephem-4-carboxylic acid (syn-isomer, cis-isomer)] | capable of maintaining a high concentration in blood | 1.1 h | 211 µg·h/mL | 25 µg/mL | 1.56 µg/mL | 12.5 µg/mL | 1.56 µg/mL | 12.5 µg/mL | 0.1 µg/mL | 6.25 µg/mL | 1.56 µg/mL | 6.25 µg/mL | –
Nc1nc(C(=NO)C(=O)NC2C(=O)N3C(C(=O)O)=C(C=Cc4cncs4)CSC23)cs1 (stereo not drawn) [Compound D, 7-[2-Hydroxyimino-2-(2-aminothiazol-4-yl)acet-amido]-3-[2-(thiazol-5-yl)vinyl]-3-cephem-4-carboxylic acid(syn-isomer, cis-isomer)] | capable of maintaining a high concentration in blood | – | – | 25 µg/mL | 0.78 µg/mL | 12.5 µg/mL | 0.78 µg/mL | 12.5 µg/mL | 0.1 µg/mL | 3.13 µg/mL | 1.56 µg/mL | – | Minimum growth inhibition concentrations (MIC) [7]: 1.56 µg/mL
Cc1ncsc1C=CC1=C(C(=O)O)N2C(=O)C(NC(=O)C(=NO)c3nsc(N)n3)C2SC1 (stereo not drawn) [Compound F, 7-[2-Hydroxyimino-2-(5-amino-1,2,4-thiadiazol-3-yl)acetamido]-3-[2-(4-methylthiazol-5-yl)vinyl]-3-cephem-4-carboxylic acid (syn-isomer, cis-isomer)] | capable of maintaining a high concentration in blood | 0.9 h | 163 µg·h/mL | 50 µg/mL | 3.13 µg/mL | 25 µg/mL | 1.56 µg/mL | 25 µg/mL | 0.39 µg/mL | 3.13 µg/mL | 6.25 µg/mL | 25 µg/mL | –
